Our source for the Activity and IC50 values is ChEMBL document CHEMBL3045180, “Synthesis of novel 4,6-diaryl-2-aminopyrimidines as potential antiplasmodial agents” (Med Chem Res, 2013).

A short description of data set [1]: Haemolytic activity against Homo sapiens (human) RBC at >50 ug/ml up to 24 hr. It is filed as ADME, cell-based. To be noted: erythrocyte.
Another data set relates to Plasmodium falciparum. Put plainly: Antiplasmodial activity against chloroquine-sensitive Plasmodium falciparum MRC 20 infected in human red blood cells measured up to 24 hr. The data set is classed as functional, organism-based. To be noted: MRC 20, 24 h.
The nature of data set [2]: Haemolytic activity against Homo sapiens (human) RBC at >25 ug/ml up to 24 hr. The data set is classed as ADME, cell-based. The settings on record: erythrocyte.
A short description of data set [3]: Haemolytic activity against Homo sapiens (human) RBC at >12.5 ug/ml up to 24 hr. It is filed as ADME, cell-based. To be noted: erythrocyte.

Structures are written as SMILES. Values after ≈ are worked out from the molar mass of the structure shown.

In the case of `COc1cccc(-c2cc(-c3cc(OC)ccc3O)nc(N)n2)c1`, in data set [1], the Activity result is given as “Toxic”. In addition, the IC50 in the data set with Plasmodium falciparum was > 25 µg/mL. For the molecule `COc1ccc(O)c(-c2cc(-c3ccccc3Cl)nc(N)n2)c1`, the Activity result in data set [1] is given as “Toxic”. Moreover, in the data set on Plasmodium falciparum, the midpoint of inhibition, the IC50, lay at 29.3 µg/mL (≈ 89.5 µM). Take `COc1ccc(O)c(-c2cc(-c3cccc(Cl)c3)nc(N)n2)c1`: in data set [2], the Activity result was “Toxic”. In the data set on Plasmodium falciparum, this molecule showed an IC50 of 9.53 µg/mL (≈ 29.1 µM). For the molecule `COc1ccc(O)c(-c2cc(-c3ccc(F)cc3)nc(N)n2)c1`, in data set [1], the Activity entry was “Toxic”. This molecule gave an IC50 with Plasmodium falciparum of 25.5 µg/mL (≈ 82 µM). `COc1ccc(-c2cc(-c3ccc(Cl)cc3)nc(N)n2)c(O)c1`: the Activity entry in data set [2] is recorded as “Toxic”. In the data set on Plasmodium falciparum, this molecule yielded an IC50 of 21.3 µg/mL (≈ 65.1 µM). As for `COc1ccc(-c2cc(-c3ccc(OC)cc3O)nc(N)n2)cc1`, in data set [3], the Activity entry is given as “Toxic”. Also, in the data set with Plasmodium falciparum, it took 1.78 µg/mL (≈ 5.5 µM) to reach half-maximal inhibition (IC50). For the molecule `COc1ccc(-c2cc(-c3ccc(F)cc3)nc(N)n2)c(O)c1`, the Activity entry in data set [1] is reported as “Toxic”. Also, the IC50 in the data set on Plasmodium falciparum was found to be 15.2 µg/mL (≈ 49 µM). Regarding `COc1ccc(-c2cc(-c3ccc(C)cc3)nc(N)n2)c(O)c1`, the Activity entry in data set [2] is “Toxic”. In the data set with Plasmodium falciparum, the IC50 worked out at 8.71 µg/mL (≈ 28.3 µM).

Take `Nc1nc(-c2ccc(OCc3ccccc3)cc2O)cc(-c2ccccc2Cl)n1`: the Activity result in data set [2] is “Toxic”. The molecule further gave an IC50 in the data set on Plasmodium falciparum of 18.9 µg/mL (≈ 46.7 µM). In the same order, the values of `Cc1ccc(-c2cc(-c3ccc(OCc4ccccc4)cc3O)nc(N)n2)cc1` are “Toxic” and 14.9 µg/mL (≈ 38.8 µM). The like results for `Cc1cccc(-c2cc(-c3ccc(OCc4ccccc4)cc3O)nc(N)n2)c1` were, in that order, “Toxic” and 35.6 µg/mL (≈ 92.7 µM).

With `Nc1nc(-c2ccc(F)cc2)cc(-c2ccc(OCc3ccccc3)cc2O)n1`, the Activity entry in data set [1] was “Toxic”. This molecule also gave an IC50 in the data set on Plasmodium falciparum of 16.7 µg/mL (≈ 43 µM). `COc1ccc(-c2cc(-c3ccc(OCc4ccccc4)cc3O)nc(N)n2)cc1OC`: in data set [3], the Activity result was “Toxic”. The molecule further came in with an IC50 with Plasmodium falciparum of 1.61 µg/mL (≈ 3.75 µM). For `COc1cccc(-c2cc(-c3ccc(OCc4ccccc4)cc3O)nc(N)n2)c1`, the Activity entry in data set [2] is recorded as “Toxic”. In addition, inhibition in the data set on Plasmodium falciparum was half-maximal at 7.61 µg/mL (≈ 19.1 µM) (IC50). In the same order, the values of `COc1ccc(-c2cc(-c3ccc(OCc4ccccc4)cc3O)nc(N)n2)cc1` are “Toxic” and 5.01 µg/mL (≈ 12.5 µM). Consider `CCN(CC)CCCC(C)Nc1ccnc2cc(Cl)ccc12` (stereo not drawn) [CHLOROQUINE], for which the Activity entry in data set [2] is listed as “Toxic”. In the case of `C=C[C@H]1C[N@@]2CC[C@H]1C[C@H]2[C@H](O)c1ccnc2ccc(OC)cc12` [QUININE], in data set [2], the Activity result was “Toxic”. The same molecule gave an IC50 in the data set on Plasmodium falciparum of 29 µg/mL (≈ 89.4 µM).
